The source of these data is ChEMBL document CHEMBL1909046, “DrugMatrix in vitro pharmacology data”.

As a reminder, the IC50 is the concentration needed to halve the response being measured. A word on the Ki: it is a measure of affinity in units of concentration, obtained from inhibition or displacement.

Assay [1] can be described thus: DRUGMATRIX: Nicotinic Acetylcholine radioligand binding (ligand: [125I] Epibatidine). The following applies: imr-32; Not Active = under 50% inhibition at 10 µM. It counts as cell membranes, Membrane.
The target of assay [2] is T1, C-C chemokine receptor type 4 (Homo sapiens, UniProt P51679). Further: in other assays of this panel Not Active means under 50% inhibition at 10 µM.
T1 sequence (P51679 whole entry): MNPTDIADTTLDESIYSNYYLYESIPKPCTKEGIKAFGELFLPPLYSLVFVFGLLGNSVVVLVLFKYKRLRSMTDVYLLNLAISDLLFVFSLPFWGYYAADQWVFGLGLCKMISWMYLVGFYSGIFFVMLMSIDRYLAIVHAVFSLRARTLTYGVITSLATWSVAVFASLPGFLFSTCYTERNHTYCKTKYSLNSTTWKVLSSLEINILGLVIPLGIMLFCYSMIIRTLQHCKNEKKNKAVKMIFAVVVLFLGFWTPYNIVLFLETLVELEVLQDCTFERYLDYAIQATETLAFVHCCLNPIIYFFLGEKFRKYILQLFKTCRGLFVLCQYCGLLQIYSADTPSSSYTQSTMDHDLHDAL
It counts as cell membranes, Membrane. The following applies: chem-1.

Assay [3] addresses T2, Endothelin-1 receptor (Homo sapiens, UniProt P25101).
T2 sequence (P25101 whole entry): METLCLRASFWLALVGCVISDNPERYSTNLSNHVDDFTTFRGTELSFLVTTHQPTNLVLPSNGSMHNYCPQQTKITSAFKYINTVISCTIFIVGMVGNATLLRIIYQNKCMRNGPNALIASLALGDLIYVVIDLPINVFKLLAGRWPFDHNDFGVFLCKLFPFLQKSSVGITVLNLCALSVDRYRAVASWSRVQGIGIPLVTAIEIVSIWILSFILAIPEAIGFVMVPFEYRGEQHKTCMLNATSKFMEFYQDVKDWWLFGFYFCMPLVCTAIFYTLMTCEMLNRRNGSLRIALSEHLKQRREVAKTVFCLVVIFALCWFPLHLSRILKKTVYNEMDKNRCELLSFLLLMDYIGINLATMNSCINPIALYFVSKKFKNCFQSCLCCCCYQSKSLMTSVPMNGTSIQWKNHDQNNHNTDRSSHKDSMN
It counts as cell membranes, Membrane. The note with it: cho-k1.

The nature of assay [4]: DRUGMATRIX: Serotonin (5-Hydroxytryptamine) 5-HT3 radioligand binding (ligand: [3H] GR-65630). It counts as cell membranes, Membrane. The following applies: hek293; Not Active = under 50% inhibition at 10 µM.
Assay [5] concerns the target Epidermal growth factor receptor (Homo sapiens, UniProt P00533). The assay can be described thus: DRUGMATRIX: Protein Tyrosine Kinase, EGF Receptor enzyme inhibition (substrate: Poly(Glu:Tyr)). It counts as cell-based, Insect cells. The following applies: Not Active = under 50% inhibition at 10 µM.
Assay [6] concerns the target T3, Alpha-1B adrenergic receptor (Rattus norvegicus, UniProt P15823).
T3 sequence (P15823 whole entry): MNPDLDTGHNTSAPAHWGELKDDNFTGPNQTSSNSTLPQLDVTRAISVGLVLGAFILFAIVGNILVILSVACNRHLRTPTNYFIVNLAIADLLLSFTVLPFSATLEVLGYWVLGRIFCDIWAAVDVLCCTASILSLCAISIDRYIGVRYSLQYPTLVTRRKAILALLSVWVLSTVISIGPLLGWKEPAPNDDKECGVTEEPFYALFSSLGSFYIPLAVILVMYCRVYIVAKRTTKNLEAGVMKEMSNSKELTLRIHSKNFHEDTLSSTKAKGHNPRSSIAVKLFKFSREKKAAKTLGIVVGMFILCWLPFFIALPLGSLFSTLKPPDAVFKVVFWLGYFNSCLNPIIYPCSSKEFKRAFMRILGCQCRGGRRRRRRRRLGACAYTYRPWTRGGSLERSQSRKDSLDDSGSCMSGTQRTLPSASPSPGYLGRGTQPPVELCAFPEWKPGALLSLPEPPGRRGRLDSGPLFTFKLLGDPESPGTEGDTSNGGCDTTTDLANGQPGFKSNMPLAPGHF
The assay can be described thus: DRUGMATRIX: Alpha-1B adrenergic receptor radioligand binding (ligand: prazosin). In kind it is cell membranes, Wistar, Liver, Membrane. The following applies: Not Active = under 50% inhibition at 10 µM.

A short description of assay [7]: DRUGMATRIX: Calcium Channel Type L, Dihydropyridine radioligand binding (ligand: [3H] Nitrendipine). It counts as cell membranes, Rattus norvegicus, Wistar, Cerebral cortex, Membrane. The following applies: Not Active = under 50% inhibition at 10 µM.
Assay [8] in a line: DRUGMATRIX: Phosphodiesterase PDE4 enzyme inhibition (substrate: [3H]cAMP + cAMP). The following applies: u-937, Not Active = under 50% inhibition at 10 µM.
Assay [9] has as its target T4, Nitric oxide synthase, inducible (Mus musculus, UniProt P29477).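 Further: inhibition of iNOS enzyme activity measured with L-arginine as substrate; in other assays of this panel Not Active means under 50% inhibition at 10 µM.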
T4 sequence (P29477 whole entry): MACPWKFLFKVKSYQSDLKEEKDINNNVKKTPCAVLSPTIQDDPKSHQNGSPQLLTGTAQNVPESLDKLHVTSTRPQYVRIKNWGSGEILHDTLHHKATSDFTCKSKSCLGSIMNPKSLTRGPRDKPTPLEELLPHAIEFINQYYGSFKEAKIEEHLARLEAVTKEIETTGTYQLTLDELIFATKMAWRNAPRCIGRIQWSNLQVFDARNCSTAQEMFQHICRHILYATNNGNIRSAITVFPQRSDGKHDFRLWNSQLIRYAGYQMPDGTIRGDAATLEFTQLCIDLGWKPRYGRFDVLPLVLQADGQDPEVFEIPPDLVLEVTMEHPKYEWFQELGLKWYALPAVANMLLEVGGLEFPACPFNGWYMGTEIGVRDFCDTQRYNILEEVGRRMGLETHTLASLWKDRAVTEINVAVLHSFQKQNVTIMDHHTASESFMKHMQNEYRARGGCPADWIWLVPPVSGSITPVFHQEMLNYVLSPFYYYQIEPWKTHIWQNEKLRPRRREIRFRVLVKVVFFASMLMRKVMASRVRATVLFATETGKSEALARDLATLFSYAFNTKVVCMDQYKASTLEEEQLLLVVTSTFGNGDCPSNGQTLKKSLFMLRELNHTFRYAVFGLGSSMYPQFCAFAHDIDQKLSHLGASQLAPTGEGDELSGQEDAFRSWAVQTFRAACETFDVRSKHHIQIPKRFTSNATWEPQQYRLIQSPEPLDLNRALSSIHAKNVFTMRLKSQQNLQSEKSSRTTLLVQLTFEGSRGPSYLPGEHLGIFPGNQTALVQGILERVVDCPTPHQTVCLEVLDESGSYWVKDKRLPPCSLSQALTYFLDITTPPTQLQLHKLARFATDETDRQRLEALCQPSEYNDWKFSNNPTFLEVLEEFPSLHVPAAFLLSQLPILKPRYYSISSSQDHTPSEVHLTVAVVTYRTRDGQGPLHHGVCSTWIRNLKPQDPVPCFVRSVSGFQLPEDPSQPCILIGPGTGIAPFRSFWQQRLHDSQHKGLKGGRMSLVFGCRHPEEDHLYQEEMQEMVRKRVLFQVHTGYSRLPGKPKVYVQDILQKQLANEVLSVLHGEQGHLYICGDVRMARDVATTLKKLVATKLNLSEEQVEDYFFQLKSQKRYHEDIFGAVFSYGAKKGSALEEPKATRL
Also noted: species or system Escherichia coli.

Molecules are shown by their SMILES.

Epidermal growth factor receptor, sequence (P00533 whole entry): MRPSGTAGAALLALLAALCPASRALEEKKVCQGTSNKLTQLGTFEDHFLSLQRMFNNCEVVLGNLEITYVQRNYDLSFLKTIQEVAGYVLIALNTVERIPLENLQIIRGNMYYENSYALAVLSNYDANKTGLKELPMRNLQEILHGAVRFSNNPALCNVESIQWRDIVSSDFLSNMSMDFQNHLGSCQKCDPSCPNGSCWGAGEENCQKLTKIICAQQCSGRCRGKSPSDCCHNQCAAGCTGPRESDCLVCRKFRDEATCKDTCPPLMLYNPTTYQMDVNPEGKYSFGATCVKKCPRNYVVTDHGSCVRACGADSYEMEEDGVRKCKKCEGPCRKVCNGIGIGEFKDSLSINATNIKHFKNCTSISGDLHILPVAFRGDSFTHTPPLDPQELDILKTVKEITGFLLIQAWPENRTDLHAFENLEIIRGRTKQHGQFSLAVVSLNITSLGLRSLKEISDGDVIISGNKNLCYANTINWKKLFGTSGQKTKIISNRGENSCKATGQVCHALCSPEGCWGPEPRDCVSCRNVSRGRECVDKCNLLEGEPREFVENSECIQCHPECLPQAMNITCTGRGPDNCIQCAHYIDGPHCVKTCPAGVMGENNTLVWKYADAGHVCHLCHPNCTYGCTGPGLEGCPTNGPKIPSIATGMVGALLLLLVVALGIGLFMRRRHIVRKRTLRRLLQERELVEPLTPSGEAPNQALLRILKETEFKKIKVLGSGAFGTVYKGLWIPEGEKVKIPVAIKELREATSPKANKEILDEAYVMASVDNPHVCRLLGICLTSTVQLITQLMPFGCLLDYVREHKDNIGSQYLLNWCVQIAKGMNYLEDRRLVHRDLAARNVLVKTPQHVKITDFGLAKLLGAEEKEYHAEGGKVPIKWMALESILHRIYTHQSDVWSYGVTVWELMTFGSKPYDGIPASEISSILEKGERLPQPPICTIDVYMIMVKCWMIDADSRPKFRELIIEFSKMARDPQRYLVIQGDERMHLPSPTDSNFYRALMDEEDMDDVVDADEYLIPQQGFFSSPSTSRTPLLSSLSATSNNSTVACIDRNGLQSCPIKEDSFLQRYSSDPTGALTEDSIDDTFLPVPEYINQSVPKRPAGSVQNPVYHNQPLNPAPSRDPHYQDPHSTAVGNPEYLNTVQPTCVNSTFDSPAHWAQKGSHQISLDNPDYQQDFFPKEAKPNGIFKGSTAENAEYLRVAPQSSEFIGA

Turning to `COS(C)(=O)=O` [METHANESULFONIC ACID METHYL ESTER], the half-maximal inhibitory concentration (IC50) entry in assay [1], in assay [2], in [3], in assay [4], in assay [5] (insect cells) and in [6] was “Not Active” each time. In addition, the half-maximal inhibitory concentration (IC50) entry in [7], in assay [8] and in assay [9] was “Not Active” throughout. The inhibitory constant (Ki) entry in [1], in assay [4], in assay [7] and in assay [8] was “Not Active” each time.

In the case of `COC(=O)c1ccc(O)cc1` [METHYLPARABEN], the IC50 entry in [1], in assay [2], in assay [3], in [4], in assay [5] (insect cells) and in assay [6] was “Not Active” each time. The half-inhibitory concentration (IC50) result in assay [7], in [8] and in [9] was “Not Active” in each case. The Ki entry in [1], in assay [4], in assay [7] and in [8] was “Not Active” each time.

`C[C@](N)(Cc1ccc(O)cc1)C(=O)O` [METYROSINE]: the half-inhibitory concentration (IC50) entry in assay [1], in assay [2], in assay [3], in assay [4], in [5] (insect cells) and in assay [6] was “Not Active” in each case. Moreover, the IC50 result in [7], in assay [8] and in assay [9] was “Not Active” throughout. Moreover, the Ki entry in [1], in [4], in [7] and in assay [8] was “Not Active” each time.

For `Clc1ccc(C(c2ccccc2Cl)C(Cl)Cl)cc1` (stereo not drawn) [MITOTANE], the half-maximal inhibitory concentration (IC50) result in [1], in [2], in assay [3], in assay [4], in assay [5] (insect cells) and in [6] was “Not Active” throughout. Further, the IC50 entry in assay [7], in assay [8] and in [9] was “Not Active” each time. The inhibitory constant (Ki) entry in assay [1], in assay [4], in [7] and in assay [8] was “Not Active” in each case.

Consider `O=C1c2c(O)ccc(O)c2C(=O)c2c(NCCNCCO)ccc(NCCNCCO)c21` [MITOXANTRONE], for which the IC50 result was “Not Active” in assay [1]; “Not Active” in assay [2]; “Not Active” in assay [3]; “Not Active” in assay [4]; 5390 nM in assay [5] (read-out: IC50); “Not Active” in assay [6]. The IC50 result in assay [7] and in [8] was “Not Active” each time. The Ki entry in [1], in assay [4], in assay [7], in assay [8] and in assay [9] was “Not Active” in each case.

As for `COc1c(C)c2c(c(O)c1C/C=C(\C)CCC(=O)OCCN1CCOCC1)C(=O)OC2` [MYCOPHENOLATE MOFETIL], the half-inhibitory concentration (IC50) entry in [1], in [2], in assay [3], in assay [4], in assay [5] (insect cells) and in assay [6] was “Not Active” each time. Moreover, the IC50 entry in assay [7], in assay [8] and in assay [9] was “Not Active” in each case. The inhibition constant (Ki) entry in assay [1], in assay [4], in assay [7] and in assay [8] was “Not Active” each time.

Consider `COC(=O)C1=C(C)NC(C)=C(C(=O)OC)C1c1ccccc1[N+](=O)[O-]` [NIFEDIPINE], for which the half-maximal inhibitory concentration (IC50) result in [1], in assay [2], in [3], in [4], in assay [5] (insect cells) and in assay [6] was “Not Active” throughout. For the same compound, the IC50 was 48 nM in [7] (read-out: IC50), 44200 nM in assay [8] (read-out: IC50) and “Not Active” in assay [9]. Besides, the inhibition constant Ki entry in assay [1] was “Not Active”; in [4], “Not Active”; in [7] (read-out: Ki) it was 31 nM.

`NNc1ccccc1` [PHENYLHYDRAZINE]: the 50% inhibitory concentration (IC50) result in [1], in [2], in assay [3], in assay [4], in assay [5] (insect cells) and in assay [6] was “Not Active” each time. The IC50 entry in assay [7], in assay [8] and in [9] was “Not Active” throughout. The inhibition constant (Ki) result in [1], in assay [4], in assay [7] and in assay [8] was “Not Active” each time.
